According to ChEMBL document CHEMBL1127978, “A new hydroxyethylamine class of HIV-1 protease inhibitors with high antiviral potency and oral bioavailability” (Bioorg Med Chem Lett, 1994):

Tests used:
[1] = tested on: Human immunodeficiency virus 1; experiment: Inhibition of viral spread in MT-4 human lymphoid cells infected with the HIV-IIIb isolate; assay type: functional; conditions: Human immunodeficiency virus 1, lymphoid; read-out: CIC95
[2] = target: Human immunodeficiency virus type 1 protease (Human immunodeficiency virus 1, UniProt Q72874); experiment: In vitro inhibitory activity against HIV-1 protease was evaluated
[3] = Time taken for maximum plasma concentration in dog; assay type: ADME, organism-based, Canis lupus familiaris
[4] = Maximum plasma concentration in dog; assay type: ADME, organism-based, Canis lupus familiaris
[5] = Oral bioavailability in dog; assay type: ADME, organism-based, Canis lupus familiaris; conditions: in vivo

Question: With `Cc1cc(C)cc(CN2CCN(C[C@@H](O)[C@H](Cc3ccccc3)NC(=O)O[C@@H]3CCS(=O)(=O)[C@@H]3C(C)C)[C@H](C(=O)NC(C)(C)C)C2)c1` as the compound, how does the IC95 [1] read?
Answer: Its IC95 is 100 nM.

Question: Which IC50 [2] does the source give for `CC(C)(C)NC(=O)[C@@H]1CN(C(=O)c2ccccc2)CCN1C[C@@H](O)[C@H](Cc1ccccc1)NC(=O)O[C@H]1CCOC1` here?
Answer: Its IC50 is 414 nM.

Question: Which IC50 [2] does the source give for `CC(C)(C)NC(=O)[C@@H]1CN(Cc2ccccn2)CCN1C[C@@H](O)[C@H](Cc1ccccc1)NC(=O)O[C@H]1CCOC1` here?
Answer: Its IC50 is 957 nM.

Question: For `CC(C)(C)NC(=O)[C@@H]1CN(C(=O)c2ccncc2)CCN1C[C@@H](O)[C@H](Cc1ccccc1)NC(=O)O[C@H]1CCOC1`, which IC50 [2] is on record?
Answer: Its IC50 is 132 nM.

Question: With `CC(C)[C@@H]1[C@H](OC(=O)N[C@@H](Cc2ccccc2)[C@H](O)CN2CCN(Cc3ccc4ccccc4c3)C[C@H]2C(=O)NC(C)(C)C)CCS1(=O)=O` as the compound, how does the IC95 [1] read?
Answer: The IC95 was 50 nM.

Question: What does the source list for `CC(C)(C)NC(=O)[C@@H]1CN(Cc2cccnc2)CCN1C[C@@H](O)[C@H](Cc1ccccc1)NC(=O)O[C@H]1CCOC1`?
Answer: IC95 [1]: 1500 nM; IC50 [2]: 676 nM

Question: Which IC50 [2] does the source give for `CC(C)(C)NC(=O)[C@@H]1CN(C(=O)OCc2ccccc2)CCN1C[C@H](O)[C@H](Cc1ccccc1)NC(=O)O[C@H]1CCOC1` here?
Answer: The IC50 was 12000 nM.

Question: Which IC50 [2] does the source give for `CC(C)(C)NC(=O)[C@@H]1CN(C(=O)OCc2ccccc2)CCN1C[C@@H](O)[C@H](Cc1ccccc1)NC(=O)O[C@H]1CCOC1` here?
Answer: The IC50 was 18.9 nM.

Question: For `Cc1ccc(CN2CCN(C[C@@H](O)[C@H](Cc3ccccc3)NC(=O)O[C@@H]3CCS(=O)(=O)[C@@H]3C(C)C)[C@H](C(=O)NC(C)(C)C)C2)cn1`, which IC95 [1] is on record?
Answer: Its IC95 is 100 nM.

Question: Which IC50 [2] does the source give for `CC(C)(C)NC(=O)[C@@H]1CN(CCc2ccccc2)CCN1C[C@@H](O)[C@H](Cc1ccccc1)NC(=O)O[C@H]1CCOC1` here?
Answer: Its IC50 is 478 nM.

Question: For `CC(C)(C)NC(=O)[C@@H]1CN(CCCc2ccccc2)CCN1C[C@@H](O)[C@H](Cc1ccccc1)NC(=O)O[C@H]1CCOC1`, which IC50 [2] is on record?
Answer: The IC50 was 175 nM.

Question: Which Tmax [3] does the source give for `CC(C)[C@@H]1[C@H](OC(=O)N[C@@H](Cc2ccccc2)[C@H](O)CN2CCN(Cc3cccc(O)c3)C[C@H]2C(=O)NC(C)(C)C)CCS1(=O)=O` here?
Answer: Its Tmax is 25 min.

Question: And the IC95 [1]?
Answer: Its IC95 is 100 nM.

Question: What about the Cmax [4] of the same compound?
Answer: The Cmax was 4 µM.

Question: Which IC95 [1] does the source give for `CC(C)[C@@H]1[C@H](OC(=O)N[C@@H](Cc2ccccc2)[C@H](O)CN2CCN(Cc3cc(Cl)cc(Cl)c3)C[C@H]2C(=O)NC(C)(C)C)CCS1(=O)=O` here?
Answer: Its IC95 is 100 nM.

Question: What does the source list for `CC(C)(C)NC(=O)[C@@H]1CN(Cc2cccc(O)c2)CCN1C[C@@H](O)[C@H](Cc1ccccc1)NC(=O)O[C@H]1CCOC1`?
Answer: IC95 [1]: 400 nM; IC50 [2]: 482 nM

Question: For `CC(C)(C)NC(=O)[C@@H]1CN(Cc2ccc(O)cc2)CCN1C[C@@H](O)[C@H](Cc1ccccc1)NC(=O)O[C@H]1CCOC1`, which IC50 [2] is on record?
Answer: The IC50 was 153 nM.

Question: Which IC95 [1] does the source give for `CC(C)(C)NC(=O)[C@@H]1CN(Cc2ccncc2)CCN1C[C@@H](O)[C@H](Cc1ccccc1)NC(=O)O[C@H]1CCOC1` here?
Answer: The IC95 was 1500 nM.

Question: And the IC50 [2]?
Answer: Its IC50 is 293 nM.

Question: With `CC(C)(C)NC(=O)[C@@H]1CN(C(=O)c2cccnc2)CCN1C[C@@H](O)[C@H](Cc1ccccc1)NC(=O)O[C@H]1CCOC1` as the compound, how does the IC50 [2] read?
Answer: Its IC50 is 371 nM.

Question: With `Cc1cc(CN2CCN(C[C@@H](O)[C@H](Cc3ccccc3)NC(=O)O[C@@H]3CCS(=O)(=O)[C@@H]3C(C)C)[C@H](C(=O)NC(C)(C)C)C2)cc(Cl)n1` as the compound, how does the IC95 [1] read?
Answer: Its IC95 is 50 nM.

Question: What about the bioavailability [5] of the same compound?
Answer: The bioavailability was 34.8%.

Question: Which IC50 [2] does the source give for `CC(C)(C)NC(=O)[C@@H]1CN(Cc2ccccc2)CCN1C[C@@H](O)[C@H](Cc1ccccc1)NC(=O)O[C@H]1CCOC1` here?
Answer: The IC50 was 102 nM.

Question: What does the source list for `CC(C)[C@@H]1[C@H](OC(=O)N[C@@H](Cc2ccccc2)[C@H](O)CN2CCN(Cc3ccncc3)C[C@H]2C(=O)NC(C)(C)C)CCS1(=O)=O`?
Answer: IC95 [1]: 200 nM; Cmax [4]: 6.5 µM

Question: For `CC(C)(C)NC(=O)[C@@H]1CN(C(=O)c2ccccn2)CCN1C[C@@H](O)[C@H](Cc1ccccc1)NC(=O)O[C@H]1CCOC1`, which IC50 [2] is on record?
Answer: The IC50 was 257 nM.

Question: Which IC50 [2] does the source give for `CC(C)(C)NC(=O)[C@@H]1CN(Cc2ccccc2O)CCN1C[C@@H](O)[C@H](Cc1ccccc1)NC(=O)O[C@H]1CCOC1` here?
Answer: Its IC50 is 102 nM.
